According to patent publication US20130089624A1, “Compounds Useful as Inhibitors of ATR Kinase” (VERTEX PHARMACEUTICALS INCORPORATED, priority 2011, published 2013):

How the values were obtained:
[1] = Pharmacokinetics, noncompartmental parameters following intravenous (IV) dosing; settings: in vivo
Method: Noncompartmental pharmacokinetic parameters were analyzed using Watson Bioanalytical LIMS (Version 7.4; Thermo Fisher Scientific) from either the blood or plasma samples. The following parameters were estimated following intravenous (IV) dosing; terminal elimination half-life (T1/2=ln(2)/λz, where λz is the first order rate constant associated with the terminal (log-linear) portion of the curve.
The area under the curve (AUClast=area under the curve from the time of dosing to the last measurable concentration). The area under the curve extrapolated to infinity (AUC0-∞=AUClast+Clast/λz). The clearance (Cl; Cl=DoseIV/AUC0-∞). The area under the first moment curve (AUMClast=area under the concentration times time versus time curve from the time of dosing to the last measurable concentration). The area under the first moment curve extrapolated to infinity (AUMC0-∞=AUMClast+Clast×t/λz+Clast/λz^2). The mean residence time (MRT=AUMC0-∞/AUC0-∞) and the steady state volume of distribution (Vdss=MRT×Cl).
Clearance and volume of distribution can also be obtained using methods known to one of skill in the art (see e.g., Handbook of Essential Pharmacokinetics, Pharmacodynamics and Drug Metabolism for Industrial Scientists, Younggil Kwon, pp 18-28 (Non-compartmental Approach)).

full-length ATR = full-length ATR (Homo sapiens (Human), UniProt Q13535); assay: ATR Inhibition Assay (radioactive-phosphate incorporation); assay type: biochemical; settings: Ki(app); 5 nM full-length ATR, 10 μM ATP, 25° C.
Method: Compounds were screened for their ability to inhibit ATR kinase using a radioactive-phosphate incorporation assay. Assays were carried out in a mixture of 50 mM Tris/HCl (pH 7.5), 10 mM MgCl2 and 1 mM DTT. Final substrate concentrations were 10 μM [γ-33P]ATP (3mCi 33P ATP/mmol ATP, Perkin Elmer) and 800 μM target peptide (ASELPASQPQPFSAKKK).
Assays were carried out at 25° C. in the presence of 5 nM full-length ATR. An assay stock buffer solution was prepared containing all of the reagents listed above, with the exception of ATP and the test compound of interest. 13.5 μL of the stock solution was placed in a 96 well plate followed by addition of 2 μL of DMSO stock containing serial dilutions of the test compound (typically starting from a final concentration of 15 μM with 3-fold serial dilutions) in duplicate (final DMSO concentration 7%). The plate was pre-incubated for 10 minutes at 25° C. and the reaction initiated by addition of 15 μL [γ-33P]ATP (final concentration 10 μM).
The reaction was stopped after […] by the addition of 30 μL 0.1M phosphoric acid containing 2 mM ATP. […]
After removing mean background values for all of the data points, Ki(app) data were calculated from non-linear regression analysis of the initial rate data using the Prism software package (GraphPad Prism version 3.0cx for Macintosh, GraphPad Software, San Diego Calif., USA).

[2] = tested on: HCT116 colorectal cancer cells; assay: Single Agent HCT116 Activity, 96 h cell viability (MTS) assay; assay type: cell-based; settings: Homo sapiens, HCT-116, 96 h MTS, read-out: Single agent HT116 IC50
Method: Compounds can be screened for single agent activity against HCT116 colorectal cancer cells using a 96 h cell viability (MTS) assay. HCT116 are plated at 470 cells per well in 96-well polystyrene plates (Costar 3596) in 150 μl of McCoy's 5A media (Sigma M8403) supplemented with 10% foetal bovine serum (JRH Biosciences 12003), Penicillin/Streptomycin solution diluted 1:100 (Sigma P7539), and 2 mM L-glumtamine (Sigma G7513), and allowed to adhere overnight at 37° C. in 5% CO2. Compounds are then added to the cell media in 2-fold serial dilutions from a top final concentration of 10 μM as a full matrix of concentrations in a final cell volume of 200 μl, and the cells are then incubated at 37° C. in 5% CO2. After 96 h, 40 μl of MTS reagent (Promega G358a) is added to each well and the cells are incubated for 1 h at 37° C. in 5% CO2. Finally, absorbance is measured at 490 nm using a SpectraMax Plus 384 reader (Molecular Devices) and IC50 values can be calculated.

intracellular ATR = intracellular ATR (Homo sapiens (Human), UniProt Q13535); assay: Cellular ATR Inhibition Assay (phosphorylation of histone H2AX in hydroxyurea treated HT29 cells); assay type: cell-based; settings: phosphorylated H2AX Ser139 in HT29 cells, 2 mM hydroxyurea; read-out: ATR biomarker IC50
Method: Compounds can be screened for their ability to inhibit intracellular ATR using an immunofluorescence microscopy assay to detect phosphorylation of the ATR substrate histone H2AX in hydroxyurea treated cells. HT29 cells are plated at 14,000 cells per well in 96-well black imaging plates (BD 353219) in McCoy's 5A media (Sigma M8403) supplemented with 10% foetal bovine serum (JRH Biosciences 12003), Penicillin/Streptomycin solution diluted 1:100 (Sigma P7539), and 2 mM L-glumtamine (Sigma G7513), and allowed to adhere overnight at 37° C. in 5% CO2. Compounds are then added to the cell media from a final concentration of 25 μM in 3-fold serial dilutions and the cells are incubated at 37° C. in 5% CO2. […]
Cells are imaged for Alexa Fluor 488 and Hoechst intensity using the BD Pathway 855 Bioimager and Attovision software (BD Biosciences, Version 1.6/855) to quantify phosphorylated H2AX Ser139 and DNA staining, respectively. The percentage of phosphorylated H2AX-positive nuclei in a montage of 9 images at 20× magnification is then calculated for each well using BD Image Data Explorer software (BD Biosciences Version 2.2.15). […] The percentage of H2AX positive nuclei is finally plotted against concentration for each compound and IC50s for intracellular ATR inhibition are determined using Prism software (GraphPad Prism version 3.0cx for Macintosh, GraphPad Software, San Diego Calif., USA).

[3] = tested on: HCT116 colorectal cancer cells; assay: Cisplatin Sensitization Assay, 96 h cell viability (MTS) assay; assay type: cell-based; settings: concentration of compound required to reduce the IC50 of Cisplatin alone by at least 3-fold; HCT116, 96 h MTS
Method: Compounds can be screened for their ability to sensitize HCT116 colorectal cancer cells to Cisplatin using a 96 h cell viability (MTS) assay. […] Compounds and Cisplatin are then both added simultaneously to the cell media in 2-fold serial dilutions from a top final concentration of 10 μM as a full matrix of concentrations in a final cell volume of 200 μl, and the cells are then incubated at 37° C. in 5% CO2. After 96 h, 40 μl of MTS reagent (Promega G358a) is added to each well and the cells are incubated for 1 h at 37° C. in 5% CO2. Finally, absorbance is measured at 490 nm using a SpectraMax Plus 384 reader (Molecular Devices) and the concentration of compound required to reduce the IC50 of Cisplatin alone by at least 3-fold (to 1 decimal place) can be reported.

intracellular ATR, sequence (Q13535 whole entry): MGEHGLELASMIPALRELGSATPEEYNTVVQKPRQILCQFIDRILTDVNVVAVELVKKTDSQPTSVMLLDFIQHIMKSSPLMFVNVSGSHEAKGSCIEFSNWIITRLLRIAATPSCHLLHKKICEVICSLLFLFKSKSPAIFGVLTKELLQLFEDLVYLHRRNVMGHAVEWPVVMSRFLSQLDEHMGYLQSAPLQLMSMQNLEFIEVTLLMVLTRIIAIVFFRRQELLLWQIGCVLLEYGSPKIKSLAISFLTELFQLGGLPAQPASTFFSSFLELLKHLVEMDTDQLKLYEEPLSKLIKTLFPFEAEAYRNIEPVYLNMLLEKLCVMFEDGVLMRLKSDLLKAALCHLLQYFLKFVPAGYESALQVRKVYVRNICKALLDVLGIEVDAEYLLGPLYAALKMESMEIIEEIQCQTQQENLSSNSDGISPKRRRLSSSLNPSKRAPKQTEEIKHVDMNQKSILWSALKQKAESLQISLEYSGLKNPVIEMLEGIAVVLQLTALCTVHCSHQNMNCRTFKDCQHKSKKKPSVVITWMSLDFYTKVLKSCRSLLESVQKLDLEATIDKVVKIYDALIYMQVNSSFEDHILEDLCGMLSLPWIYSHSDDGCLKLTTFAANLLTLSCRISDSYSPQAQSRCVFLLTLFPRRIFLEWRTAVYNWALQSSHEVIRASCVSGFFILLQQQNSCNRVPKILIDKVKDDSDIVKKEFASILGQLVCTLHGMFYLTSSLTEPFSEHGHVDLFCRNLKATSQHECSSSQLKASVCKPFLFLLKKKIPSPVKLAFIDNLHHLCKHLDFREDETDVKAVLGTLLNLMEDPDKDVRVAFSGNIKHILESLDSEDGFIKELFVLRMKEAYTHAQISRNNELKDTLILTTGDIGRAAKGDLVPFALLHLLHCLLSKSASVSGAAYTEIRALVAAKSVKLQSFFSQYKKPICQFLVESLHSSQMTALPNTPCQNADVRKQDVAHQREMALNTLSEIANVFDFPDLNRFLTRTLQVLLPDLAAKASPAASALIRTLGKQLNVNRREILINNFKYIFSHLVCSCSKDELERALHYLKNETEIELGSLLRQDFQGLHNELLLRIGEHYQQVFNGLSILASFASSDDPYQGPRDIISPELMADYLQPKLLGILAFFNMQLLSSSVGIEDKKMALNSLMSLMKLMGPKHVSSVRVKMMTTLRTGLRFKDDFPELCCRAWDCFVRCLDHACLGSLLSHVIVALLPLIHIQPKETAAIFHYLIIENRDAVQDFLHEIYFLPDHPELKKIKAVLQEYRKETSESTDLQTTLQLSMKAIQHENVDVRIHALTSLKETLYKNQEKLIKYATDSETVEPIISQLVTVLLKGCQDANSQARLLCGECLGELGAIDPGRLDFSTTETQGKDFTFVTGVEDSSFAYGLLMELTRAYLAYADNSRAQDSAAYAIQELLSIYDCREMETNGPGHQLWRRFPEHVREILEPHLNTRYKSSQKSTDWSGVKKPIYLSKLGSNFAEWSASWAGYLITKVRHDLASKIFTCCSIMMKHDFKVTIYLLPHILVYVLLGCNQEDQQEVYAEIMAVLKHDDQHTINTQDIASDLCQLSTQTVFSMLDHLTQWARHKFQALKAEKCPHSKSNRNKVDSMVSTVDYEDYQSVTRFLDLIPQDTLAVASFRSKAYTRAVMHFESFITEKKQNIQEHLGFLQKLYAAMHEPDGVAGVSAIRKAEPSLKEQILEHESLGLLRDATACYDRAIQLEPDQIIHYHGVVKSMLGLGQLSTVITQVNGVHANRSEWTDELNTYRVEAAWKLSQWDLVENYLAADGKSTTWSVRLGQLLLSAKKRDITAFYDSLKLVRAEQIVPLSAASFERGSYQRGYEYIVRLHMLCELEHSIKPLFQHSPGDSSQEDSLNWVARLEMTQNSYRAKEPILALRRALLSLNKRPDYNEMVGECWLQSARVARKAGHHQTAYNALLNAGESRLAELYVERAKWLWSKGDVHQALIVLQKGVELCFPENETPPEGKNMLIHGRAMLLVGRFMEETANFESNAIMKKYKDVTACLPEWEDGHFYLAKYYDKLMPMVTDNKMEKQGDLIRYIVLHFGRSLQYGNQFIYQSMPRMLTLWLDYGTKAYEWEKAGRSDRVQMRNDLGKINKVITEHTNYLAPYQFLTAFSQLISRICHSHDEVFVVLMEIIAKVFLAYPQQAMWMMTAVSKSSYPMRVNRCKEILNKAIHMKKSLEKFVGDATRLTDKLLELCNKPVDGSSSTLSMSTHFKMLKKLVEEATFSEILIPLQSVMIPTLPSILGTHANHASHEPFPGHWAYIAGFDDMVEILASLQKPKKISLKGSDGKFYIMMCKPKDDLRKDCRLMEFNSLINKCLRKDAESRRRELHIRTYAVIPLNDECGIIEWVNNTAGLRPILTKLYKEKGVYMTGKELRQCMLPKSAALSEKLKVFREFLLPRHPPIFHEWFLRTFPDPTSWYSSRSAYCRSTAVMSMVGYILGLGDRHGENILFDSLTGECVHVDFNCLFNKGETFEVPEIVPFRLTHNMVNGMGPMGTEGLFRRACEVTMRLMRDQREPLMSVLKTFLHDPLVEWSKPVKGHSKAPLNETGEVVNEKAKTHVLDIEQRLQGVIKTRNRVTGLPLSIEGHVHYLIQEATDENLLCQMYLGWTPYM
intracellular ATR, sequence (Q8WXE1 whole entry partner): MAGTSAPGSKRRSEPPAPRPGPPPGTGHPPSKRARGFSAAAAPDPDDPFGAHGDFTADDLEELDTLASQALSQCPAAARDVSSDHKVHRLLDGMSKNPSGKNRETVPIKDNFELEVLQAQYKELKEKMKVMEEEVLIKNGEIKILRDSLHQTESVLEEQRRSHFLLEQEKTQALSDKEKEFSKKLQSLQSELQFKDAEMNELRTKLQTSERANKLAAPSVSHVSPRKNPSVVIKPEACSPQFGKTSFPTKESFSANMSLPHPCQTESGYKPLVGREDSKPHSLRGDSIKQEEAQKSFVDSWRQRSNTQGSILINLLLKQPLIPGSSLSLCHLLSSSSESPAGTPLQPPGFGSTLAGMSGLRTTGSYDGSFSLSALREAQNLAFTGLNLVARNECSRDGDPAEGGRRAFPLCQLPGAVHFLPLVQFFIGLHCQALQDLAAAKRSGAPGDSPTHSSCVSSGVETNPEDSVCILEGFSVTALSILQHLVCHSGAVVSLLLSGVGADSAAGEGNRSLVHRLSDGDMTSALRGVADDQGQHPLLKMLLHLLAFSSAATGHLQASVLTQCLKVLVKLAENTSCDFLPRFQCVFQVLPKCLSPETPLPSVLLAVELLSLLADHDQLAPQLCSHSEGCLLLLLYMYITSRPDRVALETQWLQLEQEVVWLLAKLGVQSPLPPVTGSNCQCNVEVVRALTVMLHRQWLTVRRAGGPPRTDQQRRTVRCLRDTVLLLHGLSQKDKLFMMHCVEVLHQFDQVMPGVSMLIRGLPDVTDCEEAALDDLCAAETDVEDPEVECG
full-length ATR, sequence (Q13535 whole entry): as the sequence (Q13535 whole entry) above

CC(C)S(=O)(=O)c1ccc(-c2cnc(N)c(-c3cc(-c4ccc([C@@H]5COCCN5)cc4)no3)n2)cc1 [I, 5-(4-isopropylsulfonylphenyl)-3-[3-[4-[(3R)-morpholin-3-yl]phenyl]isoxazol-5-yl]pyrazin-2-amine]
clearance ([1]; blood or plasma samples): 3.5 mL/min/kg
Vd ([1]; steady state volume of distribution, read-out: VSS): 1.1 L/kg
Ki (full-length ATR): 0.503 nM
IC50 [2]: 365 nM
IC50 (intracellular ATR): 200 nM
Cisplatin sensitization [3]: 117 nM
